Eleven compounds from patent US6586441B2, “Adenosine receptor ligands and their use in the treatment of disease” (Hoffman-La Roche Inc., priority 2000, dated 2003) can be followed below.

Assay [1] addresses T1, human adenosine A3 receptor (Homo sapiens, UniProt P0DMS8).
T1 construct: expressed in transfected cells; host or cells: CHO cells, semliki forest virus expression system; membrane preparation
T1 sequence (P0DMS8 1-318): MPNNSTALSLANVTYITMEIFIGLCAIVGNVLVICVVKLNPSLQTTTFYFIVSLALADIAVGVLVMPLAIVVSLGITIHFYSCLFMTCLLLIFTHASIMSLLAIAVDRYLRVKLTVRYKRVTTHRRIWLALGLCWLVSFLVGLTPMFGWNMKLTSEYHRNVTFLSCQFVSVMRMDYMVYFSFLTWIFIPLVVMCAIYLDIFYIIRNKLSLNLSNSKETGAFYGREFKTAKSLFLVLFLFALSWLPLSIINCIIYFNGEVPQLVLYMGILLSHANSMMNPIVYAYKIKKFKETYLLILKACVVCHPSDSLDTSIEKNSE
In words: Human adenosine A3 receptor [125I]-AB-MECA binding assay. The following applies: membranes of CHO cells, read-out: hA3 (pKi) (converted). How it is done: The gene encoding human adenosine A3 receptor was recombinantly introduced and expressed in chinese hamster ovary (CHO) cells using the semliki forest virus expression system. Cells were harvested, washed twice by centrifugation, homogenised and again washed by centrifugation. The final washed membrane pellet was suspended in a Tris (50 mM) buffer containing 120 mM NaCl, 5 mM KCl, 2 mM CaCl2 and 10 mM MgCl2 (pH 7.4) (buffer A). The [^125I]-AB-MECA ([N(6)-(4-amino-3-iodobenzyl)-5′-N-methylcarbamoyl-adenosine]; 0.05 nM) binding assay was carried out in 96-well plates in the presence of 20 μg of membrane protein and 0.1 U adenosine deaminase in a final volume of 200 μl of buffer A. Non-specific binding was defined using xanthine amine congener (XAC; 2 μM). Compounds were tested at 10 concentrations from 10 μM-0.3 nM. All assays were conducted in duplicate and repeated at least two times. Assay plates were incubated for 1 hour at room temperature before filtration through Whatman Unifilter GF/C 96-well filter plates (preincubated with 0.3% polyethyleneimine). Filters were washed 3 times with 0.3 ml of cold (4° C.) Tris (50 mM)-Nacl (120 mM) buffer (pH 7.4). Microscint 40 scintillation fluid (50 μl) was added to each well and the wells sealed. After gentle shaking for 20 min, plates were counted on a Packard Topcount scintillation counter. IC50 values were calculated using a non-linear curve fitting program and Ki values calculated using the Cheng-Prussoff equation.

Assay [2] concerns the target T2, human adenosine A1 receptor (Homo sapiens, UniProt P30542).
T2 construct: expressed in transfected cells; host or cells: CHO cells, semliki forest virus expression system; membrane preparation
T2 sequence (P30542 1-326): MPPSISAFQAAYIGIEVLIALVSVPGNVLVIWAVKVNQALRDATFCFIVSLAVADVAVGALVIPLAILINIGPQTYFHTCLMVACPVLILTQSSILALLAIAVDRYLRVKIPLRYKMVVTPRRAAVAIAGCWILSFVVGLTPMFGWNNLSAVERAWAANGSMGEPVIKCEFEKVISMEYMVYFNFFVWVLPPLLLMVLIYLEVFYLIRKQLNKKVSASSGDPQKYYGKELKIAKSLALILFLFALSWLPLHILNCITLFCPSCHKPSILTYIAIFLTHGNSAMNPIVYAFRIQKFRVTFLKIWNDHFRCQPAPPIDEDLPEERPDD
The experiment in a line: Human adenosine A1 receptor [3H]-DPCPX binding assay. As to conditions: membranes of CHO cells, read-out: hA1 (pKi) (converted). The method, then: The gene encoding human adenosine A1 receptor was recombinantly introduced and expressed in chinese hamster ovary (CHO) cells using the semliki forest virus expression system. Cells were harvested, washed twice by centrifugation, homogenised and again washed by centrifugation. The final washed membrane pellet was suspended in a Tris (50 mM) buffer containing 120 mM NaCl, 5 mM KCl, 2 mM CaCl2 and 10 mM MgCl2 (pH 7.4) (buffer A). The [^3H]-DPCPX (([propyl-3H]8-cyclopentyl-1,3-dipropyxanthine); 0.6 nM) binding assay was carried out in 96-well plates in the presence of 2.5 μg of membrane protein, 0.5 mg of Ysi-poly-1-lysine SPA beads and 0. I U adenosine deaminase in a final volume of 200 μl of buffer A. Non-specific binding was defined using xanthine amine congener (XAC; 2 μM). Compounds were tested at 10 concentrations from 10 μM-0.3 nM. All assays were conducted in duplicate and repeated at least two times. Assay plates were incubated for 1 hour at room temperature before centrifugation and then bound ligand determined using a Packard Topcount scintillation counter. IC50 values were calculated using a non-linear curve fitting program and Ki values calculated using the Cheng-Prussoff equation.

The target of assay [3] is T3, human adenosine A2A receptor (Homo sapiens, UniProt P29274).
T3 construct: expressed in transfected cells; host or cells: CHO cells, semliki forest virus expression system; membrane preparation
In words: Human adenosine A2A receptor [3H]-SCH-58261 binding assay. A digest of the protocol: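 Membranes from CHO cells expressing the human receptor (Semliki Forest virus system) were incubated with 1 nM [3H]-SCH-58261 and adenosine deaminase. The buffer was Tris pH 7.4 with NaCl, KCl, CaCl2 and MgCl2, and the read-out was SPA after 1 h at room temperature. Non-specific binding was defined with XAC; compounds were run at 10 concentrations (10 μM–0.3 nM), and IC50 values were converted to Ki by Cheng-Prusoff.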

Where [4] appears, read: human A2A receptor, selectivity table, read-out: hA2 (pKi) (converted).
Setting [5] is: human A2A receptor, selectivity table.
The mark [6] stands for this setting: human A2a receptor, membranes of CHO cells, [3H]-SCH-58261, read-out: pKi (affinity to the human A2a receptor) (converted).

SMILES strings stand for the structures. Read-outs that look alike come from different tables or passages of the source.

T3 sequence (P29274 whole entry): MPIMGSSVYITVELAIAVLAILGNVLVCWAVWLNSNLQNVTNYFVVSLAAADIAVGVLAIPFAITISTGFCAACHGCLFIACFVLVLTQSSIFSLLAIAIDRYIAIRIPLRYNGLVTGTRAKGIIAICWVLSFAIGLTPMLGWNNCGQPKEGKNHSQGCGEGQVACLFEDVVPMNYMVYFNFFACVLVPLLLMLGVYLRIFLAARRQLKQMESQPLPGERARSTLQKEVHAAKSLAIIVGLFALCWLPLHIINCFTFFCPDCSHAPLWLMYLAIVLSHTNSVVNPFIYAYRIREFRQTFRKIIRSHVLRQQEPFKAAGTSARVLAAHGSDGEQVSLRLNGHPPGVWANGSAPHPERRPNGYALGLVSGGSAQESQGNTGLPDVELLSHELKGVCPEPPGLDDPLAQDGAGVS

With `COc1cc(-c2nc(N)nc(SC)c2C#N)cc(OC)c1OC` [Example 15, 2-Amino-4-methylsulfanyl-6-(3,4,5-trimethoxy-phenyl)-pyrimidine-5-carbonitrile], the Ki in assay [1] is 1950 nM; in assay [2], 1320 nM; in assay [3] (setting [4]), 57.5 nM.
In the case of `N#Cc1cnc(N)nc1-c1cccs1` [Example 26, 2-Amino-4-thiophen-2-yl-2-pyrimidine-5-carbonitrile], the results for the Ki in assay [1], in assay [2] and in assay [3] (setting [4]) were 1260 nM, 2510 nM and 36.3 nM, respectively.
On to `N#Cc1c(NCc2ccccc2)nc(N)nc1-c1ccco1` [Example 42, 2-Amino-4-benzylamino-6-furan-2-yl-pyrimidine-5-carbonitrile], for which the Ki in assay [1] was 8910 nM; in assay [2], 1660 nM; in assay [3] (setting [6]), 4.68 nM. Besides, the “hA2 (pKi)” value in assay [3] (setting [5]) came out at 8.33.
As to `N#Cc1c(NCCNc2ccccc2)nc(N)nc1-c1ccco1` [Example 132, 2-Amino-4-furan-2-yl-6-(2-phenylamino-ethylamino)-pyrimidine-5-carbonitrile], the values for the Ki in assay [1], in assay [2] and in assay [3] (setting [6]) were 6030 nM, 692 nM and 4.68 nM, respectively. For the same compound, in assay [3] (setting [5]), the “hA2 (pKi)” value stood at 8.33.
In the case of `N#Cc1c(/C=C/c2ccccc2)nc(N)nc1-c1ccco1` [Example 149, (E)-2-Amino-4-furan-2-yl-6-styryl-pyrimidine-5-carbonitrile], the results for the Ki in assay [1], in assay [2] and in assay [3] (setting [6]) were 2040 nM, 389 nM and 4.57 nM, respectively. For the same compound, in assay [3] (setting [5]), the “hA2 (pKi)” value is 8.34.
The matching figures for `Cc1ccccc1CNc1nc(N)nc(-c2ccco2)c1C#N` [Example 288, 2-Amino-4-furan-2-yl-6-(2-methyl-benzylamino)-pyrimidine-5-carbonitrile]: 151 nM, 372 nM, 2.57 nM and 8.59.
`N#Cc1c(OCc2ccc3ccccc3c2)nc(N)nc1-c1ccco1` [Example 303, 2-Amino-4-furan-2-yl-6-(naphthalen-2-ylmethoxy)-pyrimidine-5-carbonitrile]: the Ki in assay [1] is 8710 nM; in assay [2], 316 nM; in assay [3] (setting [6]), 2.51 nM. Further, the “hA2 (pKi)” value in assay [3] (setting [5]) is listed as 8.60.
The matching figures for `N#Cc1c(NCCNc2ccc(Cl)cc2)nc(N)nc1-c1ccco1` [Example 318, 2-Amino-4-[2-(4-chloro-phenylamino)-ethylamino]-6-furan-2-yl-pyrimidine-5-carbonitrile]: 7240 nM, 851 nM, 5.37 nM and 8.27.
Turning to `N#Cc1c(NCc2ccc(Br)cc2)nc(N)nc1-c1ccco1` [Example 325, 2-Amino-4-(4-bromo-benzylamino)-6-furan-2-yl-pyrimidine-5-carbonitrile], the Ki in assay [1] is 3980 nM; in assay [2] it was 2880 nM; in assay [3] (setting [6]) it was 5.5 nM. For the same compound, the “hA2 (pKi)” value in assay [3] (setting [5]) worked out at 8.26.
The matching figures for `CCc1ccc(CNc2nc(N)nc(-c3ccco3)c2C#N)cc1` [Example 375, 2-Amino-4-(4-ethyl-benzylamino)-6-furan-2-yl-pyrimidine-5-carbonitrile]: 2140 nM, 646 nM, 3.98 nM and 8.40.
As to `N#Cc1c(NCc2ncc(C(F)(F)F)cc2Cl)nc(N)nc1-c1ccco1` [Example 400, 2-Amino-4-[(3-chloro-5-trifluoromethyl-pyridin-2-yl-methyl)-amino]-6-furan-2-yl-pyrimidine-5-carbonitrile], the Ki in assay [2] is 4470 nM; in assay [3] (setting [6]) it was 3.63 nM. Besides, in assay [3] (setting [5]), the “hA2 (pKi)” value amounted to 8.44.
